We go through two molecules from patent US20060069132A1, “Azolecarboxamide herbicides” (priority 2004, published 2006).

One experiment concerns purple redstem. Briefly: Test D flooded paddy test. Type of experiment: in vivo, Ammannia coccinea. Particulars: 21 days, scale 0 to 100. The text has this:
(§1) Three plastic pots (ca. 16-cm diameter) per rate were partially filled with sterilized Tama silt loam soil comprising a 35:50:15 ratio of sand, silt and clay and 2.6% organic matter. Separate plantings for each of the three pots were as follows. Seeds from the U.S. of ducksalad (Heteranthera limosa (Sw.) Willd.), smallflower umbrella sedge (Cyperus difformis L.) and purple redstem (Ammannia coccinea Rottb.), were planted into one 16-cm pot for each rate. Seeds from the U.S. of rice flatsedge (Cyperus iria L.), bearded sprangletop (Leptochloa fascicularis (Lam.) Gray), one stand of 9 or 10 water seeded rice seedlings (Oryza sativa L. cv. ‘Japonica—M202’), and one stand of 6 transplanted rice seedlings (Oryza sativa L. cv. ‘Japonica—M202’) were planted into one 16-cm pot for each rate. Seeds from the U.S. of barnyardgrass (Echinochloa crus-galli (L.) Beauv.), late watergrass (Echinochloa oryzicola Vasinger), early watergrass (Echinochloa oryzoides (Ard.) Fritsch) and junglerice (Echinochloa colona (L.) Link) were planted into one 16-cm pot for each rate. Plantings were sequential so that crop and weed species were at the 2.0 to 2.5-leaf stage at time of treatment.
(§2) Potted plants were grown in a greenhouse with day/night temperature settings of 29.5/26.7° C., and supplemental balanced lighting was provided to maintain a 16-hour photoperiod. Test pots were maintained in the greenhouse until test completion.
(§3) At time of treatment, test pots were flooded to 3 cm above the soil surface, treated by application of test compounds directly to the paddy water, and then maintained at that water depth for the duration of the test. Effects of treatments on rice and weeds were visually evaluated by comparison to untreated controls after 21 days. Plant response ratings are reported on a 0 to 100 scale; where 0 is no effect and 100 is complete control. A dash (-) response means no test result.

For a further experiment, the system named is ducksalad. Briefly: Test D flooded paddy test. In kind it is in vivo, Heteranthera limosa. Particulars: 21 days, scale 0 to 100.
From the text: as §1, §2, §3

A further experiment has as its system early watergrass. Briefly: Test D flooded paddy test. In kind it is in vivo, Echinochloa oryzoides. The settings on record: 21 days, scale 0 to 100.
From the text: as §1, §2, §3

In experiment [1] the test system is corn (maize) cv. Pioneer 33G26. Briefly: Test G safening on corn by naphthalic anhydride seed treatment, preemergence. Type of experiment: in vivo, Zea mays. From the text:
This test evaluated the safening of compounds of the invention on corn (maize; Zea mays L.) cv. ‘Pioneer 33G26’ by seed treatment with naphthalic anhydride (1,8-naphthalic anhydride). All corn seed had been first treated with fludioxonil and metaxyl applied at the manufacturer's recommended rate as per the Pioneer 33G26 label. Some of the corn seed were subsequently also treated with naphthalic anhydride as a 1% by weight seed dressing. The corn seed were planted in pots containing pasteurized Sassafras sandy loam soil, and then treatments were applied preemergence the same day. Treatments were applied by spraying the test compounds formulated in a non-phytotoxic solvent mixture, using a flat fan nozzle and a spray volume of 280 L/ha. The treatments were triply replicated and the results subsequently averaged. The pots were placed on a greenhouse bench using a complete randomized block design except for the first replicate, which was unrandomized. The plants were grown in the greenhouse and watered as needed with a dilute nutrient solution containing 200 ppm of N. Illumination was daylight supplemented by artificial sources to maintaining a photoperiod of 16 hours. The temperature was maintained at 28±2° C. during the day and 23±2° C. at night. The plant response was visually rated 25 days after treatment in comparison to untreated controls using a scale of 0 to 100, with 0 representing no effect and 100 representing complete plant death.

The next experiment relates to wheat cv. Retical. The experiment can be described thus: Test H safening on wheat by naphthalic anhydride seed treatment, pre-/postemergence. In kind it is in vivo, Triticum aestivum. Set-up: key to Response of wheat, Without naphthalic anhydride seed treatment: 0 = no effect, 100 = complete plant death, vs untreated control. Particulars: preemergence. As for the experimental part: This test evaluated the safening of compounds of the invention on wheat (Triticum aestivumL.) cv. ‘Retical’ by seed treatment with naphthalic anhydride. Some of the wheat seed was treated with napthalic anhydride as a 1% by weight seed dressing. The wheat seed were planted in pots containing pasteurized Sassafras sandy loam soil. For postemergence testing the plants were grown 8 days to the 2-leaf stage at time of treatment. Preemergence treatments were applied the same day that the seeds were planted. Treatments were applied by spraying the test compounds formulated in a non-phytotoxic solvent mixture, using a flat fan nozzle and a spray volume of 280 L/ha. The preemergence treatments were triply replicated and the results subsequently averaged. The pots were placed on a growth chamber bench using a complete randomized block design for the preemergence test except for the first replicate, which was unrandomized. The plants were grown in the growth chamber and watered as needed with a dilute nutrient solution containing 200 ppm of N. Illumination was provided by fluorescent lamps giving 200-300 μE/m^2/S of photosynthetically active radiation over a 14-hour photoperiod. The temperature was maintained at 23±2° C. during the day and 17±2° C. at night. The effects of the treatments were rated 25 days after preemergence treatment and 14 days after postemergence treatment. The plant response was visually rated in comparison to untreated controls using a scale of 0 to 100, with 0 representing no effect and 100 representing complete plant death. The results for the compounds tested preemergence are listed in Table H1, and the results for the compounds tested postemergence are listed in Table H2.

Regarding `CCn1nc(C(C)(C)C)cc1C(=O)Nc1cc(C(=O)NCC2CC2)ccn1` [Compound 155], the “Plant response rating, Redstem” value in the experiment on purple redstem (32 g ai/ha) is reported as 0; with purple redstem (64 g ai/ha), 0; in the experiment with purple redstem (125 g ai/ha), 0; with purple redstem (250 g ai/ha), 95; in the experiment on purple redstem (500 g ai/ha), 95. The “Plant response rating, Ducksalad” value with ducksalad (32 g ai/ha) is on record as 0; in the experiment on ducksalad (64 g ai/ha) it was 0; in the experiment with ducksalad (125 g ai/ha), 0; with ducksalad (250 g ai/ha), 60; in the experiment with ducksalad (500 g ai/ha), 60. In addition, the “Plant response rating, Watergrass, Early” value was 0 in the experiment with early watergrass (32 g ai/ha); 0 with early watergrass (64 g ai/ha); 25 in the experiment on early watergrass (125 g ai/ha); 35 in the experiment on early watergrass (250 g ai/ha); 70 in the experiment on early watergrass (500 g ai/ha).
As to `CCn1nc(C(C)(C)C)cc1C(=O)Nc1cc(C(=O)N(C)C)ccn1` [Compound 156, 2-[[[3-(1,1-dimethylethyl)-1-ethyl-1H-pyrazol-5-yl]carbonyl]amino]-N,N-dimethyl-4-pyridinecarboxamide], the “Response of corn, With 1% naphthalic anhydride seed treatment” value in experiment [1] (62 g a.i./ha) is 0; in experiment [1] (125 g a.i./ha), 0; in experiment [1] (250 g a.i./ha) it was 17; in experiment [1] (500 g a.i./ha) it was 17. Besides, the “Response of corn, Without naphthalic anhydride seed treatment” value in experiment [1] (62 g a.i./ha) is 2; in experiment [1] (125 g a.i./ha), 30; in experiment [1] (250 g a.i./ha), 65; in experiment [1] (500 g a.i./ha), 88. Besides, the “Response of wheat, With 1% naphthalic anhydride seed treatment” value in the experiment with wheat cv. Retical (62 g a.i./ha) worked out at 7; in the experiment on wheat cv. Retical (125 g a.i./ha), 70; with wheat cv. Retical (250 g a.i./ha) it was 85; in the experiment with wheat cv. Retical (500 g a.i./ha) it was 99. Besides, the “Response of wheat, Without naphthalic anhydride seed treatment” value in the experiment on wheat cv. Retical (62 g a.i./ha) stood at 67; with wheat cv. Retical (125 g a.i./ha), 100; in the experiment with wheat cv. Retical (250 g a.i./ha), 100; in the experiment with wheat cv. Retical (500 g a.i./ha), 100.
